Reference: US8278452B2, “Heterocyclic compounds and compositions as c-kit and PDGFR kinase inhibitors” (IRM LLC, priority 2008, dated 2012)

Each compound was assayed on Mo7e cells which endogenously express c-kit (assay: Mo7e assay: inhibition of SCF dependent proliferation (MTT)). Conditions: Table 1; SCF stimulated Mo7e cells, 48 hours, MTT.
Type: cell-based
Experimental: The compounds described herein are tested for inhibition of SCF dependent proliferation using Mo7e cells which endogenously express c-kit in a 96 well format. Two-fold serially diluted test compounds (Cmax=10 μM) are evaluated for their antiproliferative activity of Mo7e cells stimulated with human recombinant SCF. After 48 hours of incubation at 37° C., cell viability is measured by using a MTT colorimetric assay from Promega. IC50 values for compounds of the invention are quoted in table 1, supra.

| SMILES | IC50 [nM] |
| --- | --- |
| Cc1cc2c(cn1)cc(-c1cc(Nc3nnc(-c4ccc(F)cc4)o3)ccc1C)c(=O)n2C [Compound B6, 3-(5-{[5-(4-fluorophenyl)-1,3,4-oxadiazol-2-yl]amino}-2-methylphenyl)-1,7-dimethyl-1,2-dihydro-1,6-naphthyridin-2-one] | 121 |
| Cc1cc2c(cn1)cc(-c1cc(Nc3noc(-c4nccn4C)n3)ccc1C)c(=O)n2C [Compound A22, 1,7-dimethyl-3-(2-methyl-5-{[5-(1-methyl-1H-imidazol-2-yl)-1,2,4-oxadiazol-3-yl]amino}phenyl)-1,2-dihydro-1,6-naphthyridin-2-one] | 360 |
| Cc1cc2c(cn1)cc(-c1cc(Nc3noc([C@@H]4CCCCO4)n3)ccc1C)c(=O)n2C [Compound A100, 1,7-dimethyl-3-[2-methyl-5-({5-[(2S)-oxan-2-yl]-1,2,4-oxadiazol-3-yl}amino)phenyl]-1,2-dihydro-1,6-naphthyridin-2-one] | 70 |
| Cc1cc2c(cn1)cc(-c1cc(Nc3noc(C(C)(C)O)n3)ccc1C)c(=O)n2C [Compound A32, 3-(5-(5-(2-hydroxypropan-2-yl)-1,2,4-oxadiazol-3-ylamino)-2-methylphenyl)-1,7-dimethyl-1,6-naphthyridin-2(1H)-one] | 172 |
| Cc1cc2c(cn1)cc(-c1cc(Nc3noc(C4CCCOC4)n3)ccc1C)c(=O)n2C (stereo not drawn) [Compound A59, 1,7-dimethyl-3-(2-methyl-5-{[5-(oxan-3-yl)-1,2,4-oxadiazol-3-yl]amino}phenyl)-1,2-dihydro-1,6-naphthyridin-2-one] | 233 |
| CCc1cc2c(cn1)cc(-c1cc(Nc3noc(C(C)C)n3)ccc1C)c(=O)n2C [Compound A104, 7-ethyl-3-(5-(5-isopropyl-1,2,4-oxadiazol-3-ylamino)-2-methylphenyl)-1-methyl-1,6-naphthyridin-2(1H)-one] | 88 |
| Cc1cc2c(cn1)cc(-c1cc(Nc3cc(C4CC4)on3)ccc1C)c(=O)n2C [Compound D4, 3-(5-(5-cyclopropylisoxazol-3-ylamino)-2-methylphenyl)-1,7-dimethyl-1,6-naphthyridin-2(1H)-one] | 56 |
| Cc1cc2c(cn1)cc(-c1cc(Nc3nnc(-c4ccccc4)s3)ccc1C)c(=O)n2C [Compound H1, 1,7-dimethyl-3-(2-methyl-5-(5-phenyl-1,3,4-thiadiazol-2-ylamino)phenyl)-1,6-naphthyridin-2(1H)-one] | 552 |
| Cc1cc2c(cn1)cc(-c1cc(Nc3noc(C4CC(=O)C4)n3)ccc1C)c(=O)n2C [Compound A72, 1,7-dimethyl-3-(2-methyl-5-{[5-(3-oxocyclobutyl)-1,2,4-oxadiazol-3-yl]amino}phenyl)-1,2-dihydro-1,6-naphthyridin-2-one] | 204 |
| Cc1cnc(-c2nc(Nc3ccc(C)c(-c4cc5cnc(C)cc5n(C)c4=O)c3)no2)cn1 [Compound A71, 1,7-dimethyl-3-(2-methyl-5-{[5-(5-methylpyrazin-2-yl)-1,2,4-oxadiazol-3-yl]amino}phenyl)-1,2-dihydro-1,6-naphthyridin-2-one] | 424 |
| Cc1cc2c(cn1)cc(-c1cc(Nc3noc(-c4ccc(C(C)(F)F)cc4)n3)ccc1C)c(=O)n2C [Compound A89, 3-[5-({5-[4-(1,1-difluoroethyl)phenyl]-1,2,4-oxadiazol-3-yl}amino)-2-methylphenyl]-1,7-dimethyl-1,2-dihydro-1,6-naphthyridin-2-one] | 217 |
| Cc1cc2c(cn1)cc(-c1cc(Nc3nnc(C4CCCC4)[nH]3)ccc1C)c(=O)n2C [Compound C1, 3-(5-(5-cyclopentyl-4H-1,2,4-triazol-3-ylamino)-2-methylphenyl)-1,7-dimethyl-1,6-naphthyridin-2(1H)-one] | 120 |
| Cc1ccc(-c2nc(Nc3ccc(C)c(-c4cc5cnc(C)cc5n(C)c4=O)c3)no2)cc1 [Compound A13, 1,7-dimethyl-3-(2-methyl-5-{[5-(4-methylphenyl)-1,2,4-oxadiazol-3-yl]amino}phenyl)-1,2-dihydro-1,6-naphthyridin-2-one] | 13 |
| Cc1cc2c(cn1)cc(-c1cc(Nc3noc(-c4ccc(CO)cc4)n3)ccc1C)c(=O)n2C [Compound A43, 3-[5-({5-[4-(hydroxymethyl)phenyl]-1,2,4-oxadiazol-3-yl}amino)-2-methylphenyl]-1,7-dimethyl-1,2-dihydro-1,6-naphthyridin-2-one] | 386 |
| CC(=O)c1ccc(-c2nc(Nc3ccc(C)c(-c4cc5cnc(C)cc5n(C)c4=O)c3)no2)cc1 [Compound A95, 3-(5-{[5-(4-acetylphenyl)-1,2,4-oxadiazol-3-yl]amino}-2-methylphenyl)-1,7-dimethyl-1,2-dihydro-1,6-naphthyridin-2-one] | 310 |
| Cc1cc2c(cn1)cc(-c1cc(Nc3noc(C(C)C)n3)ccc1C)c(=O)n2C [Compound A6, 3-(5-(5-isopropyl-1,2,4-oxadiazol-3-ylamino)-2-methylphenyl)-1,7-dimethyl-1,6-naphthyridin-2(1H)-one] | 34 |
| Cc1cc2c(cn1)cc(-c1cc(Nc3noc(-c4ccccc4Cl)n3)ccc1C)c(=O)n2C [Compound A8, 3-(5-{[5-(2-chlorophenyl)-1,2,4-oxadiazol-3-yl]amino}-2-methylphenyl)-1,7-dimethyl-1,2-dihydro-1,6-naphthyridin-2-one] | 158 |
| Cc1cc2c(cn1)cc(-c1cc(Nc3noc(-c4cccc(O)c4)n3)ccc1C)c(=O)n2C [Compound A39, 3-(5-{[5-(3-hydroxyphenyl)-1,2,4-oxadiazol-3-yl]amino}-2-methylphenyl)-1,7-dimethyl-1,2-dihydro-1,6-naphthyridin-2-one] | 480 |
| CC(=O)c1ccccc1-c1nc(Nc2ccc(C)c(-c3cc4cnc(C)cc4n(C)c3=O)c2)no1 [Compound A94, 3-(5-{[5-(2-acetylphenyl)-1,2,4-oxadiazol-3-yl]amino}-2-methylphenyl)-1,7-dimethyl-1,2-dihydro-1,6-naphthyridin-2-one] | 258 |
| Cc1cc2c(cn1)cc(-c1cc(Nc3noc(C(C)(C)C)n3)ccc1C)c(=O)n2C [Compound A30, 3-{5-[(5-tert-butyl-1,2,4-oxadiazol-3-yl)amino]-2-methylphenyl}-1,7-dimethyl-1,2-dihydro-1,6-naphthyridin-2-one] | 245 |
| Cc1cc2c(cn1)cc(-c1cc(Nc3nnc(CC(C)(C)C)[nH]3)ccc1C)c(=O)n2C [Compound C5, 3-(5-{[5-(2,2-dimethylpropyl)-4H-1,2,4-triazol-3-yl]amino}-2-methylphenyl)-1,7-dimethyl-1,2-dihydro-1,6-naphthyridin-2-one] | 320 |
| Cc1ccc(-c2nc(Nc3ccc(C)c(-c4cc5cnc(C)cc5n(C)c4=O)c3)no2)cn1 [Compound A51, 1,7-dimethyl-3-(2-methyl-5-(5-(6-methylpyridin-3-yl)-1,2,4-oxadiazol-3-ylamino)phenyl)-1,6-naphthyridin-2(1H)-one] | 119 |
| Cc1cc2c(cn1)cc(-c1cc(Nc3noc(-c4c(F)cccc4F)n3)ccc1C)c(=O)n2C [Compound A60, 3-(5-{[5-(2,6-difluorophenyl)-1,2,4-oxadiazol-3-yl]amino}-2-methylphenyl)-1,7-dimethyl-1,2-dihydro-1,6-naphthyridin-2-one] | 82 |
| Cc1cc2c(cn1)cc(-c1cc(Nc3noc(C(C)(C)CO)n3)ccc1C)c(=O)n2C [Compound A35, 3-(5-(5-(1-hydroxy-2-methylpropan-2-yl)-1,2,4-oxadiazol-3-ylamino)-2-methylphenyl)-1,7-dimethyl-1,6-naphthyridin-2(1H)-one] | 181 |
